Test results taken from US11352606B2, “Low oxygen tension enhances endothelial fate of human pluripotent stem cells” (THE JOHNS HOPKINS UNIVERSITY, priority 2014, dated 2022).

Tested on: VEcad and CD31 mRNA expression in EVCs
Details: DPI days 3-6, 5% O2, after 12 days
Method: Real-time quantitative RT-PCR. Two-step reverse transcription polymerase chain reaction (RT-PCR) was performed on differentiated and undifferentiated (day 0) hPSCs as previously described in accordance with Applied Biosystems manufacturer instructions (Kusuma et al., The FASEB Journal. 2012; 26:4925-4936). For each primer set (CD34, KDR, CD56, VEcad, CD31, ephrinB2, EphB4, Nrp1, Nrp2), the comparative […] method (Applied Biosystems, Foster City, Calif.) was used to calculate the amplification differences between different samples. The values for experiments were averaged and graphed with standard deviations.
ROS detection and inhibition. Previously published protocols were followed to detect and inhibit ROS production (Abaci et al., American Journal of Physiology—Cell Physiology. 2011; 301:C431-C440). For ROS detection, the culture media was replaced with 10 μM 2′,7′-dichlorodihydrofluorescein diacetate (H2-DCFDA) (Invitrogen) in PBS and incubated for 30 min at 37° C. Samples were washed with PBS three times prior to imaging. For ROS inhibition, cells were treated with diphenyleneiodonium (DPI) (Sigma-Aldrich) at a concentration of 10 μM.
DPI-treated cells were maintained in 5% O2 conditions for the second six days of differentiation but without DPI.

[1] = RT-PCR normalized to control (atmospheric) EVCs

SMILES: c1ccc2c(c1)[I+]c1ccccc1-2 [DPI, diphenyleneiodonium]
- CD31 expression compared to EVCs differentiated in 5% O2 without DPI: significantly lower
- VEcad expression compared to EVCs differentiated in 5% O2 without DPI: significantly lower
- expression of CD31 compared to control EVCs [1]: lower
- expression of VEcad compared to control EVCs [1]: similar
